The values below are quoted from earlier work in patent US12090420B2, “Systems and methods for recovering amines and their derivatives from aqueous mixtures” (INV Nylon Chemicals Americas, LLC, priority 2018, dated 2024).

The pKa is the negative logarithm of the acid dissociation constant.

Settings in one data set: not given
Consider `CCCCCCN` [Hexylamine], for which the “highest pKa value” is listed as 10.5.

Staying with this data set, now noted: diamines.
With `NCCCCN` [1,4-butanediamine], the “Higher pKa” value is 11.2 and the “Lower pKa” value is listed as 9.7.

Staying with this data set, now noted: diamines; 25° C.
With `NCCCCCN` [1,5-pentanediamine], the “Higher pKa” value was 10.93 and the “Lower pKa” value was 10.05. On to `NCCCCCCN` [1,6-hexanediamine], for which the “Higher pKa” value is 11.02 and the “Lower pKa” value is 10.24.

The same data set, now with this note: monoamines; single pKa taken as highest pKa.
For `Cc1ccncc1` [4-Methylpyridine], the pKa is reported as 6.08. With `c1ccc2cnccc2c1` [Isoquinoline], the pKa is on record as 5.42.

Regarding `CCCCCCCN` [Heptylamine], the pKa is listed as 10.67. For `CCCCCCN` [Hexylamine], the pKa is 10.56. Take `Cc1cccnc1` [3-Methylpyridine]: the pKa was 5.52. Turning to `CC(C)CN` [iso-Butylamine], the pKa is 10.43. `CCCCCCCCN` [Octylamine]: the pKa is 10.65.

Consider `CCc1ccccn1` [2-Ethylpyridine], for which the pKa is reported as 5.89. Regarding `CCCCCN` [Pentylamine], the pKa is on record as 10.63. Consider `CCCCCCCCCCCCCCCCN` [Hexadecylamine], for which the pKa was 10.63. For the molecule `c1ccc2c(c1)cnc1ccccc12` [Benzo[c]quinoline], the pKa was 5.58.

`CCCCCCCCCN` [Nonylamine]: the pKa was 10.64.
